According to EP0153538A1, “Derivatives of melilotic acid, and medicaments containing them” (Laboratoire Marcel Richard Société anonyme dite, priority 1984, dated 1985):
Read-outs that look alike come from different tables or passages of the source.

Assays:
Solubility (qualitative) = assay type: physicochemical
Method: Plus particulièrement, l'acide fluoro-5 acétyl mélilotique se présente sous la forme d'une poudre cristalline blanche, peu soluble dans l'eau, mais soluble dans l'alcool, l'acétone et dans les solvants organiques usuels. Son point de fusion est de 96-98°C.
12 g d'acide fluoro-5 acétoxy-2 cinnamique sont dissous dans 120cm3 acétate d'éthyle avec 1,5 g de palladium sur charbon à 10 % et hydro- gènés dans l'appareil de Parr sous 5 atmosphères d'hydrogène pendant 1 heure; on filtre et concentre sous vide pour obtenir un résidu cristallisé d'acide fluoro-5 acétylmélilotique pur peu soluble dans l'eau, soluble dans l'alcool, l'acétone et les solvants organiques usuels.

[1] = Acute toxicity in male SWISS mice; details: mouse, in vivo, souris mâle SWISS, read-out: toxicité (converted)
Method: Sa toxicité est de 1 500 mg/Kg par voie orale et de 750 mg/Kg par voie intrapéritonéale, déterminée sur la souris mâle-de la souche SWISS.

[2] = system: agrégation plaquettaire provoquée par l'ADP; assay: Inhibition of ADP-induced platelet aggregation, human blood; assay type: cell-based; details: sang humain, 100 mg/Kg
Method: (§1) Ce produit inhibe l'agrégation plaquettaire provoquée par l'ADP (adénosine diphosphate) : • sur le sang humain, inhibition de 40 % à 100 mg/Kg, sur le rat et le lapin, inhibition de 60 Z à 100 mg/Kg.

[3] = system: agrégation plaquettaire provoquée par l'ADP; assay: Inhibition of ADP-induced platelet aggregation, rat; assay type: in vivo; details: 100 mg/Kg
Method: as §1

[4] = system: agrégation plaquettaire provoquée par l'ADP; assay: Inhibition of ADP-induced platelet aggregation, rabbit; assay type: in vivo; details: lapin, 100 mg/Kg
Method: as §1

rat anesthésié = assay: Blood pressure in the anaesthetised rat after IV administration; assay type: in vivo; details: rat anesthésié à l'éthylméthane, IV 100 mg/Kg
Method: Sur le rat anesthésié à l'éthylméthane,on enregistre après administration IV. de 100 mg/Kg de produit selon l'invention une légère hypotension, soit une baisse de 15 %.

chien anesthésié = assay: Cardiovascular and respiratory effects in the pentobarbital-anaesthetised dog after IV injection; assay type: in vivo; details: chien anesthésié au Pentobarbital, IV 50 mg/Kg
souris [5] = assay: Phenylbenzoquinone test (analgesia) in mice; assay type: in vivo; details: test à la phénylbenzoquinone, 500 mg/Kg
Method: (§2) En ce qui concerne l'activité analgésique, le produit donne dans le test à la phénylbenzoquinone et dans le test à la plaque chauffante chez la souris une protection de 88 % à 500 mg/Kg.

souris [6] = assay: Hot plate test (analgesia) in mice; assay type: in vivo; details: test à la plaque chauffante, 500 mg/Kg
Method: as §2

[7] = system: artériopathies périphériques, oedème de la cheville, varices; assay: Therapeutic application (peripheral arteriopathies, ankle oedema, varices); assay type: in vivo

SMILES: CC(=O)Oc1ccc(F)cc1CCC(=O)O [acide fluoro-5 acétyl mélilotique]
- solubilité dans l'alcool, l'acétone et les solvants organiques usuels (Solubility (qualitative); alcool, acétone, solvants organiques usuels): soluble
- solubilité dans l'eau (Solubility (qualitative); eau): peu soluble
- LD50 ([1]; ip, voie intrapéritonéale): 750 mg/kg
- LD50 ([1]; po, voie orale): 1500 mg/kg
- inhibition de l'agrégation plaquettaire provoquée par l'ADP [2]: 40%
- inhibition de l'agrégation plaquettaire provoquée par l'ADP [3]: 60%
- inhibition de l'agrégation plaquettaire provoquée par l'ADP [4]: 60%
- hypotension (baisse) (rat anesthésié): 15%
- augmentation du débit (chien anesthésié): 65%
- battements (chien anesthésié): renforcement
- diminution du rythme respiratoire (chien anesthésié): 25%
- fréquence cardiaque (chien anesthésié): sans modification
- hypotension (chien anesthésié): 7%
- protection (souris [5]): 88%
- protection (souris [6]): 88%
- application thérapeutique [7]: résultats favorables
